Source: patent EP0135657B1, “Antibacterial drugs and/or feed concentrates” (priority 1983, dated 1985)

Columns and labels:
Pasteurella multocida = test: Minimum inhibitory concentration in vitro in broth containing phenol red and glucose (Difco); format: cell-based; details: single substance; inhibits bacterial growth for 24 hours
Description: (§1) Diese Feststellung wird durch die folgenden Versuchsergebnisse bestätigt. Die Mindesthemmkoncentrationen von Kombinationen von 2 bis 4 der obigen Verbindungen in erfindungsgemäßen Arzneimitteln beziehungsweise der einzelnen obigen Verbindungen als vergleichssubstanzen wurden in vitro gegen die Bakterienstämme Bordatella bronchiseptica und Pasteurella multocid in einer Phenolrot und Glucose enthaltenden Brühe [Hersteller: Firma Difco] bestimmt. In der folgenden Tabelle sind die Werte der Mindesthemmkonzentration [MIC-Werte] in mg/I, die den Bakterienzuwachs 24. Stunden lang hemmen, zusammengestellt.
(§2) Die Werte der Mindesthemmkonzentration [MIC-Werte] bei den Kombinationen bedeuten, daß die angegebenen Wirkstoffe gemeinsam in den angegebenen Konzentrationen das Wachstum der beiden verschiedenen Bakterienstämme bereits hemmen.

[1] = tested on: Bordatella bronchiseptica; test: as above; format: cell-based; details: for Mindesthemmkonzentration durch Chlorchinaldol in Kombination verringert auf: fraction of the MIC of the substance alone, stated for the bacteria used, for Bordatella bronchiseptica as 1 order of magnitude; for Werte der Mindesthemmkonzentration [MIC-Werte] in mg/l in Bezug auf die Bakterienstämme Bordatella bronchiseptica: single substance, inhibits bacterial growth for 24 hours
Description: as §1, §2

[2] = tested on: Bordatella bronchiseptica; details: relatively high doses needed; J. Am. Vet. Med. Assoc., 6 [1979], 597-600; cited from earlier work
[3] = Blood plasma concentration reached in in vivo investigations; details: Chlorchinaldol alone, very poorly absorbed, therapeutic effect said to need about 15 bis 20 p/ml, read-out: Konzentration im Blutplasma
Description: (§3) Obwohl jeder der obigen Wirkstoffe eine antibakterielle Wirkung hat, sind verhältnismäßig hohe Dosen von 2-[Methoxycarbonylhydrazono)-methylen]-chinoxalin-1,4-dioxyd {Carbadox®} und 2,4-Diamino-5-[3',4',5'-tri-(methoxy)-benzyl] pyrimidin {Trimethoprim} bei alleiniger Verwendung derselben erforderlich. Was 2-(Methyl)-5,7-di-(chlor)-8-(hydroxy)-chinolin {Chlorchinaldol} betrifft, ist dieses eine bekannte Verbindung mit einer milden baktericiden und fungiciden Wirkung. Sie wird in erster Linie für dermatologische Zwecke, zur Behandlung von Hautinfektionen, verwendet. Obwohl bei 2-(Methyl)-5,7-di-(chlor)-8-(hydroxy)-chinolin (Chlorchinaldol) der in vitro bestimmte Wert der Mindesthemmkonzentration sehr niedrig ist, weshalb eine hohe Wirksamkeit zu erwarten wäre, ist es an sich zum Beispiel gegen Schnupfen unwirksam, wobei bei Untersuchungen in vivo die therapeutisch wirksame Dosis nicht erreicht wurde. 2-(Methyl)-5,7-di-(chlor)-8-(hydroxy)-chinolin (Chlorchinaldol) wird sehr schlecht absorbiert, weshalb im Blutplasma eine Konzentration von höchstens […] erreicht wird. Zur therapeutischen Wirkung wird jedoch eine wesentlich höhere Konzentration, nämlich etwa 15 bis […], gebraucht. Mit 2-(Methyl)-5,7-di-(chlor)-8-(hydroxy)-chinolin {Chlorchinaldol} allein wird also die zur Therapie erforderliche Konzentration im Plasma nicht erreicht. […]

Schnupfen = test: Efficacy against Schnupfen in in vivo investigations; details: Chlorchinaldol alone; therapeutically effective dose not reached in vivo
Description: as §3

| SMILES | Werte der Mindesthemmkonzentration [MIC-Werte] in mg/l in Bezug auf die Bakterienstämme Pasteurella multocida (Pasteurella multocida) | Mindesthemmkonzentration durch Chlorchinaldol in Kombination verringert auf [1] | Werte der Mindesthemmkonzentration [MIC-Werte] in mg/l in Bezug auf die Bakterienstämme Bordatella bronchiseptica [1] | Ergebnisse der Behandlung mit Bordatella bronchiseptica infizierter Tiere [2] | Cmax [3] | Wirksamkeit gegen Schnupfen (Schnupfen) |
| --- | --- | --- | --- | --- | --- | --- |
| COC(=O)NN=Cc1c[n+]([O-])c2ccccc2[n+]1[O-] [Carbadox®, 2-[(Methoxycarbonylhydrazono)-methylen]-chinoxalin-1,4-dioxyd] | 10 mg/L | 1/10 | 50 mg/L | verhältnismäßig günstige Ergebnisse |  |  |
| CN(C)[C@@H]1C(O)=C(C(N)=O)C(=O)[C@@]2(O)C(O)=C3C(=O)c4c(O)cccc4[C@@](C)(O)[C@H]3[C@H](O)[C@@H]12 [Oxytetracyclin, 4-Dimethylamino-3,5,6,10,12,12a-hexahydroxy-6-methyl-1,11-dioxo-1,4,4a,5,5a,6,11,12a-octahydro-naphthacen-2-carbonsäureamid] | 5 mg/L | 1/10 | 5 mg/L |  |  |  |
| Cc1ccc2c(Cl)cc(Cl)c(O)c2n1 [Chlorchinaldol, 2-(Methyl)-5,7-di-(chlor)-8-(hydroxy)-chinolin] | 0,5 mg/l |  | 0,5 mg/l |  | ≤ 5 µg/mL | unwirksam |
| COc1cc(Cc2cnc(N)nc2N)cc(OC)c1OC [Trimethoprim, 2,4-Diamino-5-[3',4',5'-tri-(me-thoxy)-benzyl]-pyrimidin] | 50 mg/L | 1/10 | 50 mg/L |  |  |  |
